# In the NIST ThermoML archive (doi:10.1021/je060142u):
# ± gives the expanded uncertainty stated by the source.
# Assay: activity coefficient (dimensionless); of the first substance listed, at infinite dilution; xn = mol fraction of the nth substance listed
# Conditions: 101 kPa, Liquid, Chromatography, x1 = 0
activity coefficient (303.15 K),activity coefficient (313.15 K),activity coefficient (323.15 K),activity coefficient (333.15 K),activity coefficient (343.15 K),SMILES
2.29 ± 0.2,2.29 ± 0.2,2.34 ± 0.2,2.41 ± 0.21,2.48 ± 0.21,C=Cc1ccccc1 [styrene] + CCCCn1cc[n+](C)c1.F[B-](F)(F)F
40.7 ± 3.5,39.7 ± 3.4,38.1 ± 3.3,36.3 ± 3.1,35.8 ± 3.1,CCCCC [pentane] + CCCCn1cc[n+](C)c1.F[B-](F)(F)F
224 ± 20,193 ± 17,187 ± 16,179 ± 16,170 ± 15,CCCCCCCCC [nonane] + CCCCn1cc[n+](C)c1.F[B-](F)(F)F
60.8 ± 5.3,57.5 ± 5,54.2 ± 4.7,50.5 ± 4.4,47 ± 4.1,CCCCCC [hexane] + CCCCn1cc[n+](C)c1.F[B-](F)(F)F
139 ± 12,136 ± 12,127 ± 11,119 ± 10,111 ± 9.6,CCCCCCCC [octane] + CCCCn1cc[n+](C)c1.F[B-](F)(F)F
48.7 ± 4.2,45.6 ± 3.9,42.4 ± 3.7,39.8 ± 3.5,37.3 ± 3.2,CC1CCCCC1 [methylcyclohexane] + CCCCn1cc[n+](C)c1.F[B-](F)(F)F
414 ± 36,335 ± 29,320 ± 28,296 ± 26,279 ± 24,CCCCCCCCCC [decane] + CCCCn1cc[n+](C)c1.F[B-](F)(F)F
1.74 ± 0.15,1.76 ± 0.15,1.77 ± 0.15,1.8 ± 0.15,1.83 ± 0.16,c1ccccc1 [benzene] + CCCCn1cc[n+](C)c1.F[B-](F)(F)F
92.5 ± 8,86.7 ± 7.5,81.7 ± 7.1,78.9 ± 6.8,71.5 ± 6.2,CCCCCCC [heptane] + CCCCn1cc[n+](C)c1.F[B-](F)(F)F
5.61 ± 0.48,5.54 ± 0.48,5.49 ± 0.47,5.42 ± 0.47,5.37 ± 0.46,CCc1ccccc1 [ethylbenzene] + CCCCn1cc[n+](C)c1.F[B-](F)(F)F
92.7 ± 8,88.6 ± 7.7,83.8 ± 7.3,79.5 ± 6.9,75.5 ± 6.5,"CC(C)CC(C)(C)C [2,2,4-trimethylpentane] + CCCCn1cc[n+](C)c1.F[B-](F)(F)F"
14.1 ± 1.2,13.5 ± 1.2,12.9 ± 1.1,12.4 ± 1.1,11.9 ± 1,C1=CCCCC1 [cyclohexene] + CCCCn1cc[n+](C)c1.F[B-](F)(F)F
32.4 ± 2.8,30.2 ± 2.6,28.3 ± 2.5,26.9 ± 2.3,24.6 ± 2.1,C1CCCCC1 [cyclohexane] + CCCCn1cc[n+](C)c1.F[B-](F)(F)F

SMILES,activity coefficient (303.15 K),activity coefficient (313.15 K),activity coefficient (323.15 K),activity coefficient (333.15 K),activity coefficient (343.15 K)
"Cc1ccc(C)cc1 [1,4-dimethylbenzene] + CCCCn1cc[n+](C)c1.F[B-](F)(F)F",4.97 ± 0.43,5.15 ± 0.44,5.28 ± 0.46,5.33 ± 0.46,5.47 ± 0.47
"Cc1ccccc1C [1,2-dimethylbenzene] + CCCCn1cc[n+](C)c1.F[B-](F)(F)F",4.2 ± 0.36,4.18 ± 0.36,4.16 ± 0.36,4.16 ± 0.36,4.14 ± 0.36
"Cc1cccc(C)c1 [1,3-dimethylbenzene] + CCCCn1cc[n+](C)c1.F[B-](F)(F)F",5.25 ± 0.45,5.24 ± 0.45,5.23 ± 0.45,5.23 ± 0.45,5.22 ± 0.45
Cc1ccccc1 [toluene] + CCCCn1cc[n+](C)c1.F[B-](F)(F)F,2.91 ± 0.25,2.94 ± 0.25,2.95 ± 0.25,2.99 ± 0.26,3.03 ± 0.26
